Measurements taken from patent US20170273917A1, “NMDA RECEPTOR ANTAGONISTS FOR TREATING GAUCHER DISEASE” (Yeda Research and Development Co. Ltd., priority 2014, published 2017).

Columns and labels:
NMDA receptor [1] = assay: Survival of CBE-treated mice given NMDA receptor agonists or antagonists; type: in vivo, mouse
Excerpt: (§1) Mice—Pure inbred mouse strains were obtained from the Jackson laboratories (USA), Harlan UK and Harlan Israel. Specifically, BTBR T^+ Itpr3^tf/J C3H/HeJ, DBA/2J, MRL/MpJ, WSB/EiJ, MOLF/Ei, PWD/PhJ, KK/HiJ, BPL/1J, I/LnJ, BPN/3J, and LP/J were obtained from Jackson; A/J, AKR/J, NZW/LacJ, 129S1/SvImJ were obtained from Harlan laboratories in the UK; and C57BL/6JOlaHsd, BALB/cJ and FVB/NJ were obtained from the Harlan laboratories in Israel. Gba^flox/flox; nestin-Cre mice, a mouse model of GD were generated as described in Vitner et al. Nature Medicine (2014) 20: 204-208; and Enquist, I. B. et al. Proc. Natl. Acad. Sci. USA (2007) 104: 17483-17488. These mice recapitulate many features of human nGD, although their Gba1 deficiency is restricted to neural and macroglial lineages. Mice were maintained under specific pathogen-free conditions and handled according to protocols approved by the Weizmann Institute Animal Care Committee according to international guidelines.
CBE injections—Conduritol-β-epoxide (CBE) was obtained from Calbiochem Millipore (Darmstadt, Germany). CBE at a dose of 25 mg or 50 mg per kg body weight per day or PBS (control) were administered i.p. to mice daily starting from postnatal day 8 (P8) of age.
(§2) Treatment with NMDA receptor agonists and antagonists—All agonists and antagonists were administered daily from P8. D-cycloserine (Sigma) was administered daily at a dose of 200 mg/kg/day. MK-801 (Sigma) was administered daily at a dose of 0.3 mg/Kg/day. Memantine (Sigma) was administered daily at a dose of 3 or 30 mg/Kg/day. Ifenprodil (Sigma) was administered daily at a dose of 9 mg/Kg/day.

GBA1 = molecular target: T1, GBA1 (Mus musculus, UniProt P17439); assay: GBA1 activity assay in brain homogenates of treated mice; type: in vivo; conditions: A/J mice, CBE plus memantine
T1 construct: from tissue; host or cells: mouse brain (frozen half-brain homogenate) of inbred strains treated in vivo with PBS, CBE or CBE plus memantine
T1 sequence (P17439 20-515): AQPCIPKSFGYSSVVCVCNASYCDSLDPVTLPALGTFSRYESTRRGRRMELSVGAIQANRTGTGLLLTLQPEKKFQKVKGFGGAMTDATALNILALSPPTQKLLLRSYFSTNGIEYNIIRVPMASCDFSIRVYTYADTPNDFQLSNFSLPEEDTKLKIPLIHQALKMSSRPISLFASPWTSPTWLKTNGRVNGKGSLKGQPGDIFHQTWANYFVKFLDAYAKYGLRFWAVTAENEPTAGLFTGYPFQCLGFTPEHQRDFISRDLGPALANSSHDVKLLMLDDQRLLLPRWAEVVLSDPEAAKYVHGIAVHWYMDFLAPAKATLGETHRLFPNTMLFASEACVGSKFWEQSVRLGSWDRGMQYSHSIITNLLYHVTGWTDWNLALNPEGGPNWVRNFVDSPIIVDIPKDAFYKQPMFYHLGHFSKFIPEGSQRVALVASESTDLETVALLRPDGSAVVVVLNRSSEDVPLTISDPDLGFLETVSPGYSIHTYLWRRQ
Protocol: GBA1 activity assay—GBA1 activity was performed as previously described (Farfel-Becker et al. Hum Mol Genet. 2014; 23(4):843-54). Briefly, frozen half-brain samples were sonicated in Mcllvaine's buffer (0.1 M citric acid, pH 4.2, 0.2 M Na2HPO4, 29:21, vol:vol). Tissue homogenates containing 50 μg of protein were incubated at 37° C. with 8 μM C6-NBD-GlcCer (Avanti Polar Lipids, Alabaster, Ala., USA) in a final volume of 25 μl Mcllvaine's buffer for 30 minutes. Lipids were extracted and the lower phase separated by thin layer chromatography using chloroform:methanol:9.8 mM CaCl2 (60:35:8, vol:vol:vol) as the developing solvent. C6-NBD-ceramide was identified with an authentic standard using a Typhoon 9410 variable mode imager and bands were quantified by Image-QuantTL (GE Healthcare, Chalfont St Giles, UK).
To eliminate the possibility that the phenotypic differences observed in the different mouse strains were caused by differential CBE metabolism in the brain, GBA1 enzymatic activity in mice treated for 10 days with CBE or PBS (control) was measured. […] Overall, the remaining GBA1 activity was 5-10% of the controls (FIG. 3A). There was no correlation between GBA1 activity in the brain and life spans neither in the PBS(R^2=0.126, data not shown) nor CBE conditions (R^2=0.0581, FIG. 3B). In addition, no correlation was found between inhibition of GBA1 activity and life span when evaluated according to strains (R^2=0.0085, data not shown).

[2] = test system: motor coordination of CBE-treated mice; assay: Locomotor testing by the hanging wire test; type: in vivo, mouse
Excerpt: Locomotor testing—Locomotor coordination was weekly evaluated in the treated strains by the hanging wire test, a validated test for LSD mouse models (Alvarez et al. 2008). Briefly, the mouse was placed with forepaws at a center of a horizontal bar (3 mm diameter; 35 mm long).
To further characterize the effect of CBE treatment on the different strains, motor behavior was followed weekly using the hanging wire test, starting at postnatal day 21 for a period of 2 months. The hanging wire test evaluates coordination and locomotor function, wherein a high score means better coordination. […] Of note, strains PWD/PhJ and WSB/EiJ were excluded in the motor behavior analysis due to their wild behavior.

NMDA receptor [3] = assay: Survival of Gba flox/flox; nestin-Cre mice (genetic nGD model) treated with memantine; type: in vivo, mouse; conditions: memantine 3 or 30 mg/kg day from P8 vs PBS
Excerpt: as §1, §2

N[C@@H]1CONC1=O [D-cycloserine]
life spans (NMDA receptor [1]; D-cycloserine 200 mg/kg/day, CBE-treated (25 mg/kg day) long living strains BALB/cJ, FVB/NJ, 129S1/SvImJ, BTBR T+ Itpr3tf/J, daily from P8): reduced the life spans

CC(C(O)c1ccc(O)cc1)N1CCC(Cc2ccccc2)CC1.O=C(O)C(O)C(O)C(=O)O (stereo not drawn) [Ifenprodil, α-(4-Hydroxyphenyl)-β-methyl-4-benzyl-1-piperidineethanol (+)-tartrate salt]
life spans (NMDA receptor [1]; Ifenprodil 9 mg/Kg/day, CBE (25 mg/kg day)-treated A/J mice, daily from P8): showed increments in the life spans

C[C@]12N[C@H](Cc3ccccc31)c1ccccc12 [MK-801]
survival (NMDA receptor [1]; MK-801 0.3 mg/Kg/day, CBE-treated (25 mg/Kg/day) C3H mice, daily from P8): extended the survival

CC12CC3CC(C)(C1)CC(N)(C3)C2.Cl [Memantine, 3,5-Dimethyl-1-adamantanamine hydrochloride]
interference with GBA1 inhibition in the brain (GBA1; brains harvested P18 or P70): did not interfere with GBA1 inhibition | cerebral GBA1 activity (GBA1; postnatal day 70 (P70)): almost undetectable | progression of the motor dysfunction induced by CBE (hanging wire test) ([2]; A/J mice, CBE plus memantine): delayed the progression of the motor dysfunction | hanging wire test score ([2]; memantine-treated CBE mice at postnatal day 49): the same score as CBE-treated mice at P21 | life span (NMDA receptor [1]; memantine 3 mg/kg day plus CBE 25 mg/kg day, A/J, C3H/HeJ, DBA/2J and C57BL6/JolaHsd mice, daily from P8): significantly extended the life span | survival (NMDA receptor [1]; memantine 30 mg/kg/day, CBE 50 mg/kg/day, AJ mice, daily from P8): significantly extended survival | increase of life span compared with MK-801 (NMDA receptor [1]; neuropathic GD (CBE-treated) mice): to a greater extent than MK-801 | survival (NMDA receptor [3]): significantly extended survival
